Where a name gives a salt, the structure may show the parent alone.
Key:
[1] = molecular target: phospholipase A2 (Naja naja, UniProt P15445); conditions: cited from earlier work
[2] = molecular target: T1, HUMAN PLATELET PHOSPHOLIPASE A2 (Homo sapiens, UniProt P47712); test: inhibition of collagen-induced aggregation of human platelets; assay type: cell-based; conditions: human platelet rich plasma, read-out: I50 collagen (converted)
T1 construct: Human blood was drawn from an antecubital vein into 3.8% sodium citrate; endogenous in cells; host or cells: human platelets in citrated plasma (PRP)
T1 sequence (P47712 1-749): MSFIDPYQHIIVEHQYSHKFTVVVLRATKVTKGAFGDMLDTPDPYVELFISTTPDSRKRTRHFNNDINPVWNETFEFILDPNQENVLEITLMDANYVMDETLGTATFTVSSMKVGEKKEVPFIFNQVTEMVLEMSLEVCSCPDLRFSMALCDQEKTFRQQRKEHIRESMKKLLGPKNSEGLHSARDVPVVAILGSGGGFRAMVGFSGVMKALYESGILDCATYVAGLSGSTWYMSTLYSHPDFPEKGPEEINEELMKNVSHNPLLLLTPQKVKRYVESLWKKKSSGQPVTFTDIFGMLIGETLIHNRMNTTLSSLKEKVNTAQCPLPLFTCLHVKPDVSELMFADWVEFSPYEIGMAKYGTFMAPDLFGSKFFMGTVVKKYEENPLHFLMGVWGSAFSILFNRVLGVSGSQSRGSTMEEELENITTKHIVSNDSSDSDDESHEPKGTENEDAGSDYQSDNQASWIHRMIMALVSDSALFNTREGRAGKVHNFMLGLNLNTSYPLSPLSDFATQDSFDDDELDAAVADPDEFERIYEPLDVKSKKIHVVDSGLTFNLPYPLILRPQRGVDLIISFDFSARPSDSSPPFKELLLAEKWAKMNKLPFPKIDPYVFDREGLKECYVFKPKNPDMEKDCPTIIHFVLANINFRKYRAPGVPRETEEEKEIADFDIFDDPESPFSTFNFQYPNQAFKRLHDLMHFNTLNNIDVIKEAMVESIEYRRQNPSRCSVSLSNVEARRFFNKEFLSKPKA
Procedure: The compounds of the present invention were tested for their ability to inhibit collagen-induced aggregation of platelets at 100 μg. per ml. or less. The compounds that were active against collagen-induced aggregation were tested at the I50 dose against arachidonic acid-induced aggregation. Compounds that inhibited collagen-induced aggregation, but not arachidonic acid-induced aggregation, were reported as active phospholipase A2 inhibitors.
The test was run as follows. Human blood was drawn from an antecubital vein into 3.8% sodium citrate with the final citrate concentration being 0.38%. The blood was transferred to plastic centrifuge tubes and centrifuged at 200×g for 10 min. This yielded […] (PRP). This PRP was allowed to stand for 30 min. for testing at which point it was tested against 400 μg. per ml. of arachidonic acid. […] If the platelets aggregated to arachidonic acid, a dose of collagen that gave a substantial irreversible aggregation (approximately 60-80% transmission) was established. It was then attempted to block the response of collagen with 10 μg. per ml. of indomethacin. […] The ID50 for all unknown compounds was then established. Most of the compounds were tested at rather high concentrations and it was often necessary to place the compound in ethanol into the aggregation cuvet and evaporate the ethanol before testing.
Those that were reported as active were tested at the ID50 dose against 400 μg per ml. of arachidonic acid. […] The compounds are shown to inhibit phospholipase A2 from humans at low dosages.

[3] = molecular target: BEE VENOM PHOSPHOLIPASE A2 (Apis mellifera, UniProt P00630); test: biochemical; conditions: pH 8.5, 37° C.
[4] = tested on: UV induced erythema; test: UV induced erythema on the skin of guinea pigs; assay type: in vivo, guinea pig; conditions: for erythema score, 1 hour / erythema score, 2 hours / erythema score, 3 hours / erythema score, 4 hours / erythema score, 24 hours: aggregate score for 3 animals; for erythema score, (After 4 hours) Total Points / erythema score, (After 24 hours) Total Points: aggregate for 3 animals
Procedure: Some of the compounds of this invention were tested in vivo for their ability to inhibit the effects of UV induced erythema on the skin of guinea pigs. This is an example of an inflammatory process fulfilling the four pathological requirements of "rubor, calor, dolor, and tumor" i.e., reddening, heat, pain, and edematious swelling in the skin. Administration of the compounds of this invention to guinea pigs whose skin was subsequently exposed to ultraviolet light markedly retarded and in some cases eliminated altogether this inflammatory process. Administration of the compounds of this invention was performed both interparenterally and subcutaneously with equivalent results, thereby eliminating any possiblity of reduction in erthyma due to the so called "counter irritant" effect on the serosal soft surface of the gut.
The test was carried out as follows: Guinea pigs of the Hartley strain ranging in weight from 250 to 750 gm. were clipped with coarse and fine clippers to remove as much hair as possible from the back or abdomen. They were then treated with a commercial depilatory for six to seven min. after which they were washed with warm water. The animals were then injected I.P. or subcutaneously with solutions or suspensions of the test compounds made up at 0.02 molar concentrations. The dose was 0.3 ml. per 100 gm. of body weight. A control (untreated) group was also maintained. The animals were then held for 30 min. before being exposed as rapidly as possible to ultra-violet light using a Kromayer lamp for 30 sec. A scoring system was developed to quantitate the erythema. The scoring was from 0 to 5 and is described as follows:
0=no apparent reddening of the skin
0.5=some slight reddening, without a definite border
1.0=a discrete pink circle with a definite border
2.0=a discrete circle of redness with a definite border more intense than 1.0
3.0=same circle with still greater intensity
4.0=same circle with a near maximal response but without any raising of the erythematous spot above the level of the surrounding skin
5.0=a raised edematous circle with the redness at maximal intensity
The animals were scored at hourly intervals for the first four hours. The erythema reached a maximum at this time in the control animals. The major difference between results at 4 hr. and those at 24 is the developement of edema and this occurred in some of the animals treated with phospholipase inhibitors without erythema being present. The results of this test are shown in tabular form in Tables VI and VII. The aggregate scores of the animals treated with the designated compounds are recorded at hourly intervals and compared with the control (untreated) scores. As shown by the tables, the method of this invention markedly retarded UV-induced erythema.

[5] = molecular target: SNAKE VENOM PHOSPHOLIPASE A2; test: coupled phospholipase A2 / soybean lipoxygenase oxygen consumption assay, snake venom enzyme; assay type: biochemical; conditions: estimated I50 calculated from a partial inhibition value, pH 8.5, 37° C.
[6] = molecular target: T2, HOG PANCREAS PHOSPHOLIPASE A2 (Sus scrofa, UniProt P00592); test: coupled phospholipase A2 / soybean lipoxygenase oxygen consumption assay, hog pancreas enzyme; assay type: biochemical; conditions: estimated I50 calculated from a partial inhibition value, pH 8.5, 37° C.
T2 construct: from tissue; host or cells: hog pancreas

[7] = tested on: phospholipase A2 of rabbit polymorphonuclear leukocytes; conditions: cited from earlier work
[8] = molecular target: T3, phospholipase A2 from pig pancreas (Sus scrofa, UniProt P00592); conditions: enzyme from pig pancreas; cited from earlier work
T3 construct: host or cells: pig pancreas

[9] = molecular target: phospholipase A2 from venom of bee (Apis mellifera, UniProt P00630); conditions: enzyme from bee venom; cited from earlier work
[10] = molecular target: phospholipase A2 from venom of Crotalus Adamanteus (Crotalus adamanteus, UniProt P00623); conditions: enzyme from Crotalus Adamanteus venom; cited from earlier work
[11] = tested on: phospholipase A2 derived from perfused guinea pig lung; conditions: enzyme derived from perfused guinea pig lung; cited from earlier work

phospholipase A2, sequence (P15445 whole entry, looked up): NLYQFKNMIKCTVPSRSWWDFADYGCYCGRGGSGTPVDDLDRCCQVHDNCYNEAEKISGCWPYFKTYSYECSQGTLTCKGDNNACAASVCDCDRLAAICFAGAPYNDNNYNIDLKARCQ
T2 sequence (P00592 23-146): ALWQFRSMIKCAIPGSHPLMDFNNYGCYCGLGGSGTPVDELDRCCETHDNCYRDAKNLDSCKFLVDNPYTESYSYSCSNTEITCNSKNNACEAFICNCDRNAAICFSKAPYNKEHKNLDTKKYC
T3 sequence (P00592 23-146): as above
phospholipase A2 from venom of Crotalus Adamanteus, sequence (P00623 17-138 limits assumed): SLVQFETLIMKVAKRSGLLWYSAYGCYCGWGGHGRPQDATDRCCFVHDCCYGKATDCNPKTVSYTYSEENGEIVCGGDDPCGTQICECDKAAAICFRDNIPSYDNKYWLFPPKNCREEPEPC
UniProt P00630, sequence (P00630 34-167 limits assumed): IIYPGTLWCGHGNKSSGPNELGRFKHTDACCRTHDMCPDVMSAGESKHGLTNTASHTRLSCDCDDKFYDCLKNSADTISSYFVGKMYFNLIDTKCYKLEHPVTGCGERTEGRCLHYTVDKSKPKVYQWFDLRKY
phospholipase A2 from venom of bee, sequence (P00630 34-167 limits assumed): as above

O=C(CBr)c1ccc(Br)cc1 [Bromphenacyl bromide]
inhibition of phospholipase A2 [1]: inhibit phospholipase A2 by acylating a histadine residue

CO[C@]1(c2ccccc2C)CC[C@@H](NCCCC(=O)c2ccc(F)cc2)CC1 [C, Butyrophenone, 4'-fluoro-4-[(t-4-methoxy-4-o-tolylcyclohexyl)-amino]-, hydrochloride]
IC50 [2]: 196 µM
IC50 [3]: 404 µM
erythema score, 1 hour ([4]; intraperitoneal, 23-25.2 mg/kg given 30 min. before UV, control 12): 8
erythema score, 2 hours ([4]; intraperitoneal, 23-25.2 mg/kg given 30 min. before UV, control 18): 13
erythema score, 3 hours ([4]; intraperitoneal, 23-25.2 mg/kg given 30 min. before UV, control 24): 12
erythema score, 4 hours ([4]; intraperitoneal, 23-25.2 mg/kg given 30 min. before UV, control 30): 12
erythema score, 24 hours ([4]; intraperitoneal, 23-25.2 mg/kg given 30 min. before UV, control 50): 27
erythema score, (After 4 hours) Total Points ([4]; intraperitoneal, 23-25.2 mg/kg, control 78): 45
erythema score, (After 24 hours) Total Points ([4]; intraperitoneal, 23-25.2 mg/kg, control 128): 72
erythema score, 1 hour ([4]; subcutaneous, 60.9-66.1 mg/kg given 30 min. before UV, control 17): 10
erythema score, 2 hours ([4]; subcutaneous, 60.9-66.1 mg/kg given 30 min. before UV, control 23): 11
erythema score, 3 hours ([4]; subcutaneous, 60.9-66.1 mg/kg given 30 min. before UV, control 29): 9
erythema score, 4 hours ([4]; subcutaneous, 60.9-66.1 mg/kg given 30 min. before UV, control 34): 10
erythema score, 24 hours ([4]; subcutaneous, 60.9-66.1 mg/kg given 30 min. before UV, control 56): 40
erythema score, (After 4 hours) Total Points ([4]; subcutaneous, 60.9-66.1 mg/kg, control 103): 39
erythema score, (After 24 hours) Total Points ([4]; subcutaneous, 60.9-66.1 mg/kg, control 158): 79
IC50 [5]: 301 µM
IC50 [6]: 11.8 µM

COc1ccc2c(c1)c(CC(=O)O)c(C)n2C(=O)c1ccc(Cl)cc1 [indomethacin, Indomethacin]
inhibition of phospholipase A2 [7]: inhibit phospholipase A2 of rabbit polymorphonuclear leukocytes in dose dependent fashion
inhibition of phospholipase A2 [8]: inactive
inhibition of phospholipase A2 [9]: inactive
inhibition of phospholipase A2 [10]: inactive

CCN(CC)CCCC(C)Nc1c2ccc(Cl)cc2nc2ccc(OC)cc12 (stereo not drawn) [mepacrine]
inhibition of phospholipase A2 [11]: inhibits the activity of phospholipase A2
